Reference: ChEMBL document CHEMBL1201862, “PubChem BioAssay data set” (2004)
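Step 1: Grow cells in 96-well plates. Step 2: Expose to compound for 48 hours at 5 concentrations. Step 3: Interpolate endpoints linearly; if unreached, use highest concentration. GI50 = concentration required for 50% inhibition of growth.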 Calls of active or inactive are those of the source. No stated cut-off is given here; in the data, active = GI50 up to about 1.1 µM and inactive = higher.

What was measured:
Test in all cases: DTP human tumour cell line panel, 48 h
OVCAR-8 = test system: OVCAR-8
UO-31 = test system: UO-31
KM12 = test system: KM12
MOLT-4 = test system: MOLT-4
HOP-62 = test system: HOP-62
CCRF-CEM = test system: CCRF-CEM
HL-60 = test system: HL-60
RPMI-8226 = test system: RPMI-8226
SK-MEL-28 = test system: SK-MEL-28
M14 = test system: M14
K562 = test system: K562
HCT-15 = test system: HCT-15
IGROV-1 = test system: IGROV-1
SN12C = test system: SN12C
SK-MEL-2 = test system: SK-MEL-2
U-251 = test system: U-251
TK-10 = test system: TK-10
NCI-H226 = test system: NCI-H226

Row | Structure (SMILES) | GI50 (OVCAR-8) | GI50 (UO-31) | GI50 (KM12) | GI50 (MOLT-4) | GI50 (HOP-62) | GI50 (CCRF-CEM) | GI50 (HL-60) | GI50 (RPMI-8226) | GI50 (SK-MEL-28) | GI50 (M14) | GI50 (K562) | GI50 (HCT-15) [µM] | GI50 (IGROV-1) | GI50 (SN12C) | GI50 (SK-MEL-2) | GI50 (U-251) | GI50 (TK-10) | GI50 (NCI-H226)
1 | CN(C)c1ccc(C(=C(c2ccc(N(C)C)cc2)c2ccc(N(C)C)cc2)c2ccc(N(C)C)cc2)cc1 | 19.6 µM (inactive) | 17.4 µM (inactive) | 18.5 µM (inactive) | 14.6 µM (inactive) | 39.5 µM (inactive) | 16.6 µM (inactive) | 5.36 µM (inactive) | 7 µM (inactive) | 14.3 µM (inactive) | 6.62 µM (inactive) | 8.09 µM (inactive) | 14.4 | 17.3 µM (inactive) | 16.2 µM (inactive) | 12.1 µM (inactive) | 13.9 µM (inactive) | 16 µM (inactive) | 19.8 µM (inactive)
2 | C[n+]1c2n(c3nc(N)[nH]c(=O)c31)C1OC(C2)C(O)C1O (stereo not drawn) | > 100 µM (inactive) | > 100 µM (inactive) | > 100 µM (inactive) | > 100 µM (inactive) | > 100 µM (inactive) | > 100 µM (inactive) | > 100 µM (inactive) | – | > 100 µM (inactive) | > 100 µM (inactive) | > 100 µM (inactive) | – | > 100 µM (inactive) | > 100 µM (inactive) | > 100 µM (inactive) | > 100 µM (inactive) | > 100 µM (inactive) | > 100 µM (inactive)
3 | COc1ccc(-c2c(N)[n+]([O-])c3ccccc3[n+]2[O-])cc1OC | > 100 µM (inactive) | > 100 µM (inactive) | > 100 µM (inactive) | > 100 µM (inactive) | > 100 µM (inactive) | – | > 100 µM (inactive) | > 100 µM (inactive) | > 100 µM (inactive) | > 100 µM (inactive) | > 100 µM (inactive) | > 100 | > 100 µM (inactive) | > 100 µM (inactive) | > 100 µM (inactive) | > 100 µM (inactive) | – | > 100 µM (inactive)
4 | Nn1c(CCCl)nc2c(Br)cc(Br)cc2c1=O | 41.5 µM (inactive) | 25.1 µM (inactive) | 18.7 µM (inactive) | 22.7 µM (inactive) | 26.8 µM (inactive) | 8.2 µM (inactive) | 2.77 µM (inactive) | 24.4 µM (inactive) | 37.2 µM (inactive) | 30.3 µM (inactive) | 13.2 µM (inactive) | 22.1 | 21 µM (inactive) | 30.8 µM (inactive) | 33.1 µM (inactive) | 23.1 µM (inactive) | 34.3 µM (inactive) | 28.5 µM (inactive)
